Measured values from publication PMC9424906 (Frontiers in Pharmacology, 2022).
“Also recorded” adds a separate entry of the source.

Columns and labels:
[1] = Pharmacokinetics in C57BL/6 mice; assay type: in vivo, mouse; conditions: male
Experimental: (§1) Adult male C57BL/6 mice and Sprague Dawley rats were purchased from Charles River Laboratory (Wilmington, MA). PK studies for mice and rats were conducted at NIH animal facility (Bethesda, MD). In-life dog and monkey PK studies were conducted at Absorption System (San Diego, CA) and Frontage Labs (Concord, OH), respectively. Dogs and monkeys were fasted overnight prior to dose administrations. All experimental procedures were reviewed and approved by the Animal Care and Use Committee (ACUC) of the NIH Division of Veterinary Resources (DVR) or CRO labs for in-life studies.
Male C57BL6 mice (n = 3 per time point, 24–40 g) were dosed at 5 mg/kg IV or 10 mg/kg oral gavage. The dosing volume was 3 mL/kg for IV and 10 ml/kg for PO. All dosing solutions were freshly prepared on the day of administration. Blood samples were collected over 24 h.
(§2) Blood samples from all groups and species were collected in K2EDTA tubes and stored on wet ice pending processing. Blood was centrifuged at 2200 g at 4°C for 10 min to isolate plasma. All samples were stored at -80°C until analysis.
(§3) Phoenix WinNonlin, version 8.1 (Certara, St. Louis, MO), was used to perform PK analysis with the non-compartmental approach (Models 200 and 201 for PO and IV datasets). The area under the plasma concentration vs. time curve (AUC) was calculated using the linear trapezoidal method. The terminal rate constant (λ) was obtained from the slope of at least three data points of the apparent terminal phase of the log-linear plasma concentration vs. time curve when available. AUC0–∞ was estimated as the sum of the AUC0–t (where t is the time of the last measurable concentration) and Ct/λ. The apparent terminal half-life (t½) was calculated as 0.693/λ. Bioavailability (F) was calculated using ratios of dose normalized AUC (AUC/Dose) obtained from PO and IV PK studies.

ENT1 = ENT1 (Homo sapiens, UniProt Q99808); experiment: Nucleoside transporter uptake, ENT1-transfected MDCK cells
[2] = Pharmacokinetics in Beagle dogs; assay type: in vivo, dog; conditions: for half-life: plasma
Experimental: as §1
The dosing volume was 1.0 mL/kg for both groups. Plasma (both IV and PO groups) and urine (IV group) samples were collected over a period of 48 h.
as §2, §3

in vitro [3] = assay type: in vitro ADME, human; conditions: Sprague-Dawley (rat), CD-1 (mouse), Beagle (dog), monkey
Experimental: Plasma protein binding experiments were carried out in mixed-gender human plasma, male Sprague-Dawley rat plasma, male CD-1 plasma, male Beagle dog plasma, and male Cynomolgus monkey plasma (BioIVT) using a Pierce Rapid Equilibration Dialysis (RED) device. […] Blank phosphate-buffered saline (PBS) (500 μL) was added to each corresponding receiver chamber. After 4 h of incubation (with shaking at 37°C), both sides were aliquoted, and matrix was normalized. Samples were centrifuged at 1000 g for 10 min after adding two volumes of ACN with IS. Supernatants were diluted 1:1 with water and analyzed with LC-MS/MS.
Plasma Protein binding was calculated as follows:
% Bound = [(PARR in Donor–PARR in Receiver)/(PARR in Donor)] × 100.
PARR = peak area response ratio to internal standard, including applicable dilution factors.

[4] = tested on: EpiAirway human tracheobronchial epithelial tissues
[5] = tested on: SARS-CoV-2 (2019-nCoV/USA-WAl/2020); assay type: cell-based; conditions: EpiAirway 3D HAE tissue model
MDR1 [6] = experiment: in vitro; conditions: dog, MDCK-MDR1, 5 µM; for Papp A→B at 2 h, 5 µM: MDCK-MDR1, pH 7.4, Papp A to B; for Papp B→A at 2 h, 5 µM: MDCK-MDR1, pH 7.4, Papp B to A
MATE2-K = conditions: cited from earlier work
[7] = 7-days dose range finding study in monkeys; conditions: oral, 7 days, 1,000 mg/kg/day
ENT4 = ENT4 (Homo sapiens, UniProt Q7RTT9); experiment: Nucleoside transporter uptake, ENT4-transfected MDCK cells
in vitro [8] = assay type: in vitro ADME; conditions: PAMPA, pH 7.4
Experimental: Stirring double-sink PAMPA (patented by Pion Inc.) was employed to determine permeability. Assay was performed as described previously ([Sun et al., 2017]). The PAMPA lipid membrane, which consisted of an artificial membrane of a proprietary lipid mixture and dodecane (Pion Inc.), was optimized to predict cell membrane permeability. This artificial membrane was immobilized on a plastic matrix of a 96-well “donor” filter plate placed below a 96-well “acceptor” plate. Both “donor” and “acceptor” wells were buffered to pH 7.4. […] Permeability calculations were performed using Pion Inc. software and were expressed in the unit of 10^–6 cm/s.

[9] = Pharmacokinetics in Cynomolgus monkeys; assay type: in vivo; conditions: male, cynomolgus monkey
Experimental: as §1
The dosing volumes were 2 mL/kg for IV and 5 mL/kg for PO. Blood samples were obtained from each monkey up to 48 h after IV and PO administration. Urine samples were collected over 48 h for IV group.
as §2, §3

[10] = Liver microsomal stability, SD rat; assay type: in vitro ADME; conditions: Sprague-Dawley, liver microsomes, pH 7.4, 0.5 mg/mL
Experimental: Samples were analyzed using UPLC-MS/MS.

MDR1 [11] = conditions: MDCK-MDR1
[12] = 7-days dose range finding study in dogs; conditions: oral, 2000 mg/kg/day
[13] = C57BL/6, mouse, in vivo, iv, 5 mg/kg
[14] = C57BL/6, mouse, in vivo, po, 10 mg/kg
[15] = male, beagle, dog, in vivo, iv, 2 mg/kg
[16] = male, beagle, dog, in vivo, po, 5 mg/kg

ENT1, sequence (Q99808 whole entry): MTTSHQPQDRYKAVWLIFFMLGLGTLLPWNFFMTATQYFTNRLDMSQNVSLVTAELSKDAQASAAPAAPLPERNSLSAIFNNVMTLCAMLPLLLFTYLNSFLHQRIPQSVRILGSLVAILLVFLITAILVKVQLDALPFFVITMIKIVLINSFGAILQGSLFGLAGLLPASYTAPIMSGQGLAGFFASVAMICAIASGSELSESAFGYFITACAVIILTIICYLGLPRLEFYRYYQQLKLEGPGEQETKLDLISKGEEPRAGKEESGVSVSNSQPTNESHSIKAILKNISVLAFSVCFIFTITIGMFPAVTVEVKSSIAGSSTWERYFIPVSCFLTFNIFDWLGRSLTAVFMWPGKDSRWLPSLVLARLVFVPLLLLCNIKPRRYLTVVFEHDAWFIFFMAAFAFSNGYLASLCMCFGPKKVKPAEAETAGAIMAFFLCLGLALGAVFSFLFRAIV
ENT4, sequence (Q7RTT9 whole entry): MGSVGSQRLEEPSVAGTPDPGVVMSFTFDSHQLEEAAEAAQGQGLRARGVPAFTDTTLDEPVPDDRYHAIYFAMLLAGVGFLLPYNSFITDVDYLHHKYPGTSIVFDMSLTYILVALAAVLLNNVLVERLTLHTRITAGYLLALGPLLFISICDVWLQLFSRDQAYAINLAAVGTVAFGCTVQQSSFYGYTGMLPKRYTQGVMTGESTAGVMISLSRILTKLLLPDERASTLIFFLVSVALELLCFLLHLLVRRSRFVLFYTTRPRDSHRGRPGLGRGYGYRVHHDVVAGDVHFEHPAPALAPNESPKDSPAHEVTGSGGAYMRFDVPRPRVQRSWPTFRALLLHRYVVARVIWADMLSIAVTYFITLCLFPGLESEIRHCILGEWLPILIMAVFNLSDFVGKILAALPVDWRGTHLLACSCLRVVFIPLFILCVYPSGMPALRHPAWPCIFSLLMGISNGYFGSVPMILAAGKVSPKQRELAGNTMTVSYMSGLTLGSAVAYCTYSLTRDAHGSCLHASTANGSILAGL

For N#C[C@@]1(c2ccc3c(N)ncnn23)O[C@H](CO)[C@@H](O)[C@H]1O [GS-441524], the Vd [1, 13] was 2.4 L/kg, the clearance [1, 13] was 26 mL/min/kg and the AUC(0-inf) [1, 14] was 2540 ng·h/mL. The Cmax [1, 14] was 582 ng/mL, the Tmax [1, 14] was 1.5 h and the bioavailability [1, 14] was 39%. For the same molecule, the half-life ([1]; C57BL/6, plasma, Mouse, PO 10 mg/kg) was 3.9 h, the “Inhibition of uptake by reference inhibitor” value (ENT1; ENT1-transfected cells, reference inhibitor NBMPR, 30 µM GS-441524) was 92.3% and the “Substrate of ENT1” value (ENT1; MDCK) was “substrate”. For the same molecule, the t1/2 ([2]; Dog, PO 5 mg/kg, 5 mg/kg) was 4.1 ± 1.1 h, the Vd ([2]; male, Beagle, dog, in vivo, iv, 2 mg/kg, Vdss) was 0.9 L/kg and the half-life ([2]; male, Beagle, dog, iv, 2 mg/kg, IV 2 mg/kg) was about 4 h. For the same molecule, the half-life ([2]; male, Beagle, dog, po, 5 mg/kg, PO 5 mg/kg) was about 4 h, the “Mean urinary excretion of unchanged parent drug” value [2, 15] was about 64% and the clearance [2, 15] was 4.1 ± 0.7 mL/min/kg. For the same molecule, the Cmax [2, 16] was 6010 ng/mL, the Tmax [2, 16] was 0.28 ± 0.19 h and the bioavailability [2, 16] was 85 ± 17%. For the same molecule, the AUC(0-inf) ([2]; male, beagle, in vivo, Dog, PO 5 mg/kg) was 19000 ng·h/mL, the fraction unbound at 4 h, 10 µM (in vitro [3]; both (human, mixed-gender), male (animals), human) was 0.62 to 0.78 and the fraction unbound at 4 h, 10 µM (in vitro [3]; male, plasma) was 0.62 to 0.64. The Cytotoxicity [4] was “did not exhibit any cytotoxicity”, the “Potency on viral titer (TCID50) at 24 h” value ([5]; 24 h) was “lower potency than EIDD-2801” and the “Viral titer (TCID50)” value ([5]; 24 h and 96 h after infection) was “significantly inhibited the viral infection; also recorded: reduced viral load”. For the same molecule, the Papp A→B at 2 h, 5 µM (MDR1 [6]; 1 µM Valspodar) was 0.484 ×10⁻⁶ cm/s, the Papp A→B at 2 h, 5 µM (MDR1 [6]; no inhibitor) was 0.158 ×10⁻⁶ cm/s and the Papp B→A at 2 h, 5 µM (MDR1 [6]; 1 µM Valspodar) was 0.468 ×10⁻⁶ cm/s. The Papp B→A at 2 h, 5 µM (MDR1 [6]; no inhibitor) was 0.521 ×10⁻⁶ cm/s, the “Substrate of MATE2-K” value (MATE2-K) was “not a substrate” and the “Tolerability at maximum feasible dose” value [7] was “well tolerated”. For the same molecule, the “Difference in uptake compared to control cells” value (ENT4) was “less than 2 fold”, the Papp at 30 min (in vitro [8]) was under 1 ×10⁻⁶ cm/s and the Vd ([9]; in vivo, iv, 2 mg/kg) was 1.1 ± 0.04 L/kg. It also gave a clearance ([9]; in vivo, iv, 2 mg/kg) of 9.5 ± 1 mL/min/kg, an AUC(0-inf) ([9]; in vivo, po, 5 mg/kg) of 734 ± 138 ng·h/mL and a Cmax ([9]; in vivo, po, 5 mg/kg) of 59.4 ± 18.1 ng/mL. For the same molecule, the Tmax ([9]; in vivo, po, 5 mg/kg) was 2 h, the bioavailability ([9]; in vivo, po, 5 mg/kg) was 8.3 ± 1.6% and the half-life ([9]; plasma, Monkey, PO 5 mg/kg) was 7.7 ± 1.4 h. For the same molecule, the half-life at 1 µM [10] was 1.02 ± 0.15 h, the “Substrate of MDR1” value (MDR1 [11]) was “substrate” and the “Tolerability at maximum feasible dose” value [12] was “well tolerated”.
